Measured values as given in patent US7507407B2, “Immunoliposomes that optimize internationalization into target cells” (The Regents of the University of California, priority 1994, dated 2009).

Experiments:
[1] = test system: SK-BR-3 cells; settings: treated 1 hour, counted after 3 days, doxorubicin concentration
Protocol: (A) SK-BR-3 cells. […] Cells in culture were treated for 1 hour with: conventional immunoliposomes (triangles); sterically stabilized (2 mole % PEG-PE) immunoliposomes (closed circles); control (irrelevant antibody) sterically stabilized (2 mole % PEG-PE) immunoliposomes (open circles); or free doxorubicin alone (closed squares). Immunoliposomes contained 60-70 μg antibody/μmol phospholipid and 55-80 μg doxorubicin/μmol phospholipid; antibody/doxorubicin ratio was 0.8-1.2. Cells were counted 3 days after treatment as described in Methods.
To test the cytotoxicity of doxorubicin-loaded immunoliposomes, SK-BR-3 or WI-38 cells in monolayer culture were incubated with free doxorubicin or doxorubicin-loaded immunoliposomes for 1 hour, and then washed extensively with media. The cells were then further incubated at 37° C. for 3 days, after which cell number was estimated by crystal violet staining as described above.

[2] = test system: WI-38 cells; assay: cytotoxicity of doxorubicin-loaded immunoliposomes, WI-38 cells; assay type: cell-based; settings: minimal p185^HER2

## COc1cccc2c1C(=O)c1c(O)c3c(c(O)c1C2=O)C[C@@](O)(C(=O)CO)C[C@@H]3O[C@H]1C[C@H](N)[C@H](O)[C@H](C)O1 [doxorubicin]
[1]
  IC50 cytotoxicity: approximately 0.3 μg/ml
[2]
  cytotoxicity against WI-38 cells: significant dose-dependent cytotoxicity
